Test results as given in US10807992B2, “Single enantiomer antiparasitic compounds” (priority 2017, dated 2020).
Read-outs that look alike come from different tables or passages of the source.

System: Aedes aegypti
Test: In vitro contact activity against adult mosquitoes (coated vial)
Experimental: Aedes aegypti (Louisiana Biologicals Inc., New Orleans, La.) eggs were allowed to hatch, close, and age between 3-5 days in an environmental chamber at 26° C., 80% humidity with light/dark cycles.
For mosquito assays, an aliquot from each compound stock was added to an acetone/triton solution to achieve the desired top doses for the study. Serial dilutions were conducted from the top dose (i.e. 50 ppm) to achieve the desired titration range for EC50 and EC90 determination. The final DMSO concentration in each test vial was 0.5%. A 459 μL aliquot of each compound formulation was transferred to a vial and vials were immediately placed on an unheated roller unit to allow for an even coating of the vial walls. The vials were loosely capped and allowed to dry for a minimum of four hours in a chemical fume hood.
For both contact and ingestion assays, five female Aedes aegypti adults were added to each vial or cage. The test vials for contact assays were held in an environmental chamber at 24° C., 80% humidity with light/dark cycles (12 hours each). The cages for mosquito ingestion assays were held in a temperature-controlled artificial feeding apparatus to allow continual access to organic bovine blood containing the desired concentration of compound. Fresh aliquots of compound-spiked bovine blood were provided daily for the duration of the study.
Mosquitoes showing no movement or mosquitoes that were knocked down were noted as dead. Results from trial 1 and trial 2 contact assays are shown in Tables 12 and 13, respectively and the results from trial 3 mosquito ingestion assay is shown in table 14.
For the mosquito contact and ingestion assays, each replicate contained 5 mosquitoes. For ease of calculation, the two replicates were added to equal a total of 10 mosquitoes.

O=C(CC(F)(F)F)N1CC2(C1)OCc1cc(C3=NS[C@](c4cc(Cl)c(F)c(Cl)c4)(C(F)(F)F)C3)ccc12 [C1 (R) enantiomer, (R)-1-[6-[5-(3,5-dichloro-4-fluoro-phenyl)-5-(trifluoromethyl)-4H-isothiazol-3-yl]spiro[1H-isobenzofuran-3,3′-azetidine]-1′-yl]-3,3,3-trifluoro-propan-1-one]
100%: mortality at 50 µM (24 h, read-out: % Mortality R1 + R2, Trial 1, contact assay, dose 50 μM, 24 hr) | mortality at 50 µM (24 h, read-out: % Mortality R1 + R2, Trial 2, contact assay, dose 50 μM, 24 hr) | mortality at 50 µM (48 h, read-out: % Mortality R1 + R2, Trial 1, contact assay, dose 50 μM, 48 hr) | mortality at 12.5 µM (48 h, read-out: % Mortality R1 + R2, Trial 2, contact assay, dose 12.5 μM, 48 hr) | mortality at 50 µM (48 h, read-out: % Mortality R1 + R2, Trial 2, contact assay, dose 50 μM, 48 hr)
60%: mortality at 12.5 µM (24 h, read-out: % Mortality R1 + R2, Trial 2, contact assay, dose 12.5 μM, 24 hr) | mortality at 0.2 µM (48 h, read-out: % Mortality R1 + R2, Trial 2, contact assay, dose 0.20 μM, 48 hr)
30%: mortality at 50 µM (12 h, read-out: % Mortality R1 + R2, Trial 1, contact assay, dose 50 μM, 12 hr) | mortality at 3.125 µM (48 h, read-out: % Mortality R1 + R2, Trial 1, contact assay, dose 3.125 μM, 48 hr)
10%: mortality at 0.2 µM (12 h, read-out: % Mortality R1 + R2, Trial 2, contact assay, dose 0.20 μM, 12 hr) | mortality at 0.78 µM (12 h, read-out: % Mortality R1 + R2, Trial 2, contact assay, dose 0.78 μM, 12 hr) | mortality at 0.78 µM (24 h, read-out: % Mortality R1 + R2, Trial 2, contact assay, dose 0.78 μM, 24 hr) | mortality at 3.125 µM (24 h, read-out: % Mortality R1 + R2, Trial 2, contact assay, dose 3.125 μM, 24 hr) | mortality at 0.049 µM (48 h, read-out: % Mortality R1 + R2, Trial 1, contact assay, dose 0.049 μM, 48 hr) | mortality at 0.78 µM (48 h, read-out: % Mortality R1 + R2, Trial 2, contact assay, dose 0.78 μM, 48 hr)
40%: mortality at 0.2 µM (48 h, read-out: % Mortality R1 + R2, Trial 1, contact assay, dose 0.20 μM, 48 hr)
0%: mortality at 0.049 µM (0.5 h, read-out: % Mortality R1 + R2, Trial 1, contact assay, dose 0.049 μM, 0.5 Hr) | mortality at 0.2 µM (0.5 h, read-out: % Mortality R1 + R2, Trial 1, contact assay, dose 0.20 μM, 0.5 Hr) | mortality at 0.78 µM (0.5 h, read-out: % Mortality R1 + R2, Trial 1, contact assay, dose 0.78 μM, 0.5 Hr) | mortality at 3.125 µM (0.5 h, read-out: % Mortality R1 + R2, Trial 1, contact assay, dose 3.125 μM, 0.5 Hr) | mortality at 12.5 µM (0.5 h, read-out: % Mortality R1 + R2, Trial 1, contact assay, dose 12.5 μM, 0.5 Hr) | mortality at 50 µM (0.5 h, read-out: % Mortality R1 + R2, Trial 1, contact assay, dose 50 μM, 0.5 Hr) | mortality at 0.049 µM (0.5 h, read-out: % Mortality R1 + R2, Trial 2, contact assay, dose 0.049 μM, 0.5 Hr) | mortality at 0.2 µM (0.5 h, read-out: % Mortality R1 + R2, Trial 2, contact assay, dose 0.20 μM, 0.5 Hr) | mortality at 0.78 µM (0.5 h, read-out: % Mortality R1 + R2, Trial 2, contact assay, dose 0.78 μM, 0.5 Hr) | mortality at 3.125 µM (0.5 h, read-out: % Mortality R1 + R2, Trial 2, contact assay, dose 3.125 μM, 0.5 Hr) | mortality at 12.5 µM (0.5 h, read-out: % Mortality R1 + R2, Trial 2, contact assay, dose 12.5 μM, 0.5 Hr) | mortality at 50 µM (0.5 h, read-out: % Mortality R1 + R2, Trial 2, contact assay, dose 50 μM, 0.5 Hr) | mortality at 0.049 µM (1 h, read-out: % Mortality R1 + R2, Trial 1, contact assay, dose 0.049 μM, 1 hr) | mortality at 0.2 µM (1 h, read-out: % Mortality R1 + R2, Trial 1, contact assay, dose 0.20 μM, 1 hr) | mortality at 0.78 µM (1 h, read-out: % Mortality R1 + R2, Trial 1, contact assay, dose 0.78 μM, 1 hr) | mortality at 3.125 µM (1 h, read-out: % Mortality R1 + R2, Trial 1, contact assay, dose 3.125 μM, 1 hr) | mortality at 12.5 µM (1 h, read-out: % Mortality R1 + R2, Trial 1, contact assay, dose 12.5 μM, 1 hr) | mortality at 50 µM (1 h, read-out: % Mortality R1 + R2, Trial 1, contact assay, dose 50 μM, 1 hr) | mortality at 0.049 µM (1 h, read-out: % Mortality R1 + R2, Trial 2, contact assay, dose 0.049 μM, 1 hr) | mortality at 0.2 µM (1 h, read-out: % Mortality R1 + R2, Trial 2, contact assay, dose 0.20 μM, 1 hr) | mortality at 0.78 µM (1 h, read-out: % Mortality R1 + R2, Trial 2, contact assay, dose 0.78 μM, 1 hr) | mortality at 3.125 µM (1 h, read-out: % Mortality R1 + R2, Trial 2, contact assay, dose 3.125 μM, 1 hr) | mortality at 12.5 µM (1 h, read-out: % Mortality R1 + R2, Trial 2, contact assay, dose 12.5 μM, 1 hr) | mortality at 50 µM (1 h, read-out: % Mortality R1 + R2, Trial 2, contact assay, dose 50 μM, 1 hr) | mortality at 0.049 µM (6 h, read-out: % Mortality R1 + R2, Trial 1, contact assay, dose 0.049 μM, 6 hr) | mortality at 0.2 µM (6 h, read-out: % Mortality R1 + R2, Trial 1, contact assay, dose 0.20 μM, 6 hr) | mortality at 0.78 µM (6 h, read-out: % Mortality R1 + R2, Trial 1, contact assay, dose 0.78 μM, 6 hr) | mortality at 3.125 µM (6 h, read-out: % Mortality R1 + R2, Trial 1, contact assay, dose 3.125 μM, 6 hr) | mortality at 12.5 µM (6 h, read-out: % Mortality R1 + R2, Trial 1, contact assay, dose 12.5 μM, 6 hr) | mortality at 50 µM (6 h, read-out: % Mortality R1 + R2, Trial 1, contact assay, dose 50 μM, 6 hr) | mortality at 0.049 µM (6 h, read-out: % Mortality R1 + R2, Trial 2, contact assay, dose 0.049 μM, 6 hr) | mortality at 0.2 µM (6 h, read-out: % Mortality R1 + R2, Trial 2, contact assay, dose 0.20 μM, 6 hr) | mortality at 0.78 µM (6 h, read-out: % Mortality R1 + R2, Trial 2, contact assay, dose 0.78 μM, 6 hr) | mortality at 3.125 µM (6 h, read-out: % Mortality R1 + R2, Trial 2, contact assay, dose 3.125 μM, 6 hr) | mortality at 12.5 µM (6 h, read-out: % Mortality R1 + R2, Trial 2, contact assay, dose 12.5 μM, 6 hr) | mortality at 50 µM (6 h, read-out: % Mortality R1 + R2, Trial 2, contact assay, dose 50 μM, 6 hr) | mortality at 0.049 µM (12 h, read-out: % Mortality R1 + R2, Trial 1, contact assay, dose 0.049 μM, 12 hr) | mortality at 0.2 µM (12 h, read-out: % Mortality R1 + R2, Trial 1, contact assay, dose 0.20 μM, 12 hr) | mortality at 0.78 µM (12 h, read-out: % Mortality R1 + R2, Trial 1, contact assay, dose 0.78 μM, 12 hr) | mortality at 3.125 µM (12 h, read-out: % Mortality R1 + R2, Trial 1, contact assay, dose 3.125 μM, 12 hr) | mortality at 12.5 µM (12 h, read-out: % Mortality R1 + R2, Trial 1, contact assay, dose 12.5 μM, 12 hr) | mortality at 0.049 µM (12 h, read-out: % Mortality R1 + R2, Trial 2, contact assay, dose 0.049 μM, 12 hr) | mortality at 3.125 µM (12 h, read-out: % Mortality R1 + R2, Trial 2, contact assay, dose 3.125 μM, 12 hr) | mortality at 12.5 µM (12 h, read-out: % Mortality R1 + R2, Trial 2, contact assay, dose 12.5 μM, 12 hr) | mortality at 0.049 µM (24 h, read-out: % Mortality R1 + R2, Trial 1, contact assay, dose 0.049 μM, 24 hr) | mortality at 0.2 µM (24 h, read-out: % Mortality R1 + R2, Trial 1, contact assay, dose 0.20 μM, 24 hr) | mortality at 0.78 µM (24 h, read-out: % Mortality R1 + R2, Trial 1, contact assay, dose 0.78 μM, 24 hr) | mortality at 3.125 µM (24 h, read-out: % Mortality R1 + R2, Trial 1, contact assay, dose 3.125 μM, 24 hr) | mortality at 12.5 µM (24 h, read-out: % Mortality R1 + R2, Trial 1, contact assay, dose 12.5 μM, 24 hr) | mortality at 0.049 µM (24 h, read-out: % Mortality R1 + R2, Trial 2, contact assay, dose 0.049 μM, 24 hr) | mortality at 0.2 µM (24 h, read-out: % Mortality R1 + R2, Trial 2, contact assay, dose 0.20 μM, 24 hr)
50%: mortality at 12.5 µM (48 h, read-out: % Mortality R1 + R2, Trial 1, contact assay, dose 12.5 μM, 48 hr)
20%: mortality at 50 µM (12 h, read-out: % Mortality R1 + R2, Trial 2, contact assay, dose 50 μM, 12 hr) | mortality at 0.78 µM (48 h, read-out: % Mortality R1 + R2, Trial 1, contact assay, dose 0.78 μM, 48 hr) | mortality at 0.049 µM (48 h, read-out: % Mortality R1 + R2, Trial 2, contact assay, dose 0.049 μM, 48 hr) | mortality at 3.125 µM (48 h, read-out: % Mortality R1 + R2, Trial 2, contact assay, dose 3.125 μM, 48 hr)
